# Columns and labels:
# Type in all cases: cell-based
# HCT-15 (human colon) = assay: In vitro antitumor effect against human tumor cell lines, SRB assay, HCT-15; settings: HCT 15 cells, 48 hours; for IC50: Homo sapiens, read-out: ED50 HCT 15
# Description: (§1) In vitro antitumor effect against human tumor cell lines.
# (§2) a. Human solid tumor cell lines, A549(non-small lung cell), SKMEL-2(melanoma), HCT-15(colon), SKOV-3(ovarian), XF-498(CNS) were cultured at 37° C. in 5% CO2 incubators using RPMI 1640 media containing 10% FBS, while they were transfer-cultured successively once or twice per week. Cell cultures were dissolved in a solution of 0.25% trypsin and 3 mM CDTA PBS(−) and then cells were separated from media which the cells were sticked on.
# (§3) b. 5×10^3˜2×10^4 cells were added into each well of 96-well plate and cultured in 5% CO2 incubator, at 37° C., for 24 hours.
# (§4) c. Each sample drug was dissolved in a little DMSO and diluted with the used medium to a prescribed concentration for experiments, wherein the final concentration of DMSO was controlled below 0.5%.
# (§5) d. Medium of each well cultured for 24 hours as above b. was removed by aspiration. Each 200 μl of drug samples prepared in c. was added into each well and the wells were cultured for 48 hours. Tz(time zero) plates were collected at the point of time drugs were added.
# (§6) e. According to the SRB assay method, cell fixing with TCA, staining with 0.4% SRB solution, washing with 1% acetic acid and elution of dye with 10 mM Tris solution were carried out on Tz plates and culture-ended plates, whereby OD values were measured at 520 nm.
# (§7) a. Time zero(Tz) value was determined with measuring the SRB protein amounts of the Tz plates collected at the point of time drugs were added.
# (§8) b. Control value(C) was determined with the OD values of wells untreated with a drug.
# (§9) c. Drug-treated test value(T) was determined with the OD values of drug-treated wells.
# (§10) d. Effects of drugs were estimated with growth stimulation, net growth inhibition, net killing etc., being calculated from Tz, C and T.
# (§11) e. If T≧Tz, cellular response function was calculated by 100×(T−Tz)/(C−Tz), and if T<Tz, by 100×(T−Tz)/Tz.
# SKMEL-2 (human melanoma) = assay: In vitro antitumor effect against human tumor cell lines, SRB assay, SKMEL-2; settings: SK-MEL-2 cells, 48 hours; for IC50: Homo sapiens, read-out: ED50 SK-MEL-2
# Description: as §1, §2, §3, §4, §5, §6, §7, §8, §9, §10, §11
# SKOV-3 (human ovarian) = assay: In vitro antitumor effect against human tumor cell lines, SRB assay, SKOV-3; settings: SK-OV-3 cells, 48 hours; for IC50: Homo sapiens, read-out: ED50 SK-OV-3
# Description: as §1, §2, §3, §4, §5, §6, §7, §8, §9, §10, §11
# [1] = tested on: A549 (human non-small lung cell); assay: In vitro antitumor effect against human tumor cell lines, SRB assay, A549; settings: A549 cells, 48 hours; for IC50: Homo sapiens, read-out: ED50 A 549
# Description: as §1, §2, §3, §4, §5, §6, §7, §8, §9, §10, §11
# [2] = tested on: P388 (mouse lymphoid neoplasma cell); assay: In vitro antitumor effects against animal leukemia cells, dye exclusion assay; settings: 48 hours, trypan blue dye exclusion, read-out: P388 (IC50, concentration showing 50% cell growth inhibition compared with the control)
# Description: In vitro antitumor effects against animal leukemia cells.
# Tumor cell line: P388 (mouse lymphoid neoplasma cell)
# B. Method: Dye Exclusion Assay.
# 1) Concentrations of P388 cells being cultured in RPMI 1640 media containing 10% FBS were regulated to 1×10^6 cells/ml.
# 2) Sample drugs of respective concentrations diluted in the ratio of log doses were added into each cell culture and cultured at 37° C., for 48 hours, in […] incubator, and then viable cell numbers were measured by dye exclusion test using trypan blue.
# XF 498 (human CNS) = assay: In vitro antitumor effect against human tumor cell lines, SRB assay, XF 498; settings: 48 hours; for IC50: Homo sapiens, XF498, XF-498 cells, read-out: ED50 XF-498; for ED50 XF-498: XF-498 cells
# Description: as §1, §2, §3, §4, §5, §6, §7, §8, §9, §10, §11
SMILES,IC50 (HCT-15 (human colon)) [ng/mL],IC50 (SKMEL-2 (human melanoma)) [ng/mL],IC50 (SKOV-3 (human ovarian)) [ng/mL],IC50 [1] [ng/mL],IC50 [2] [ng/mL],IC50 (XF 498 (human CNS)) [ng/mL],ED50 HCT 15 (HCT-15 (human colon)) [ng/mL],ED50 SK-MEL-2 (SKMEL-2 (human melanoma)) [ng/mL],ED50 SK-OV-3 (SKOV-3 (human ovarian)) [ng/mL],ED50 A 549 [1] [ng/mL],ED50 XF-498 (XF 498 (human CNS)) [ng/mL]
"COc1ccccc1N1CCN(C(=O)Nc2nc(C)c(C)nc2OC)CC1 [Example 2, 1-[(5,6-Dimethyl-2-methoxypyrazin-3-yl)aminocarbonyl]-4-(2-methoxyphenyl)piperazine]",19,29,88,32,300,84,,,,,
"COc1cc(OC)cc(N2CCN(C(=O)Nc3nc(C)c(C)nc3OC)CC2)c1 [Example 3, 1-[(5,6-Dimethyl-2-methoxypyrazin-3-yl)aminocarbonyl]-4-(3,5-dimethoxyphenyl)piperazine]",2,1.5,6.4,1.6,10,2.2,,,,,
"COc1nc(C)c(C)nc1NC(=O)N1CCN(c2cc(Cl)cc(Cl)c2)CC1 [Example 11, 1-[(5,6-Dimethyl-2-methoxypyrazin-3-yl)aminocarbonyl]-4-(3,5-dichlorophenyl)piperazine]",,,,,20,,,,,,
"COc1nc(C)c(C)nc1NC(=O)N1CCN(c2cc(F)cc(F)c2)CC1 [Example 12, 1-[(5,6-Dimethyl-2-methoxypyrazin-3-yl)aminocarbonyl]-4-(3,5-difluorophenyl)piperazine]",1,8,69,8,100,17,,,,,
"COc1nc(C)c(C)nc1NC(=O)N1CCN(c2cc([N+](=O)[O-])cc([N+](=O)[O-])c2)CC1 [Example 15, 1-[(5,6-Dimethyl-2-methoxypyrazin-3-yl)aminocarbonyl]-4-(3,5-dinitrophenyl)piperazine]",71,38,184,79,700,96,,,,,
"COc1cc(OC)cc(N2CCN(C(=O)N(C)c3nc(C)c(C)nc3OC)CC2)c1 [Example 19, 1-[(5,6-Dimethyl-2-methoxypyrazin-3-yl)N-methylaminocarbonyl]-4-(3,5-dimethoxyphenyl)piperazine]",80,43,143,6.4,200,93,,,,,
"COc1nc(C)c(C)nc1N(C)C(=O)N1CCN(c2cc(C)cc(C)c2)CC1 [Example 20, 1-[(5,6-Dimethyl-2-methoxypyrazin-3-yl)N-methylaminocarbonyl]-4-(3,5-dimethylphenyl)piperazine]",295,211,904,323,1200,970,,,,,
"COc1nc(C)c(C)nc1N(C)C(=O)N1CCN(c2cc(Cl)cc(Cl)c2)CC1 [Example 21, 1-[(5,6-Dimethyl-2-methoxypyrazin-3-yl)N-methylaminocarbonyl]-4-(3,5-dichlorophenyl)piperazine]",8,24,93,38,800,97,,,,,
"COc1nc2ccccc2nc1NC(=O)N1CCN(c2cc([N+](=O)[O-])cc([N+](=O)[O-])c2)CC1 [Example 48, 1-[(2-Methoxyquinoxalin-3-yl)aminocarbonyl]-4-(3,5-dinitrophenyl)piperazine]",2,0.3,7,1,390,4,,,,,
"COc1cc(C)c(C)cc1N=C(NO)N1CCN(c2ccccc2)CC1 [Example 177, N-Hydroxy-N′-(4,5-dimethyl-2-methoxyphenyl-1-yl)-(4-phenylpiperazin-1-yl)carboxyimidamide]",,,,,,,0.1,0.3,0.8,0.6,0.4
"COc1cc(C)c(C)cc1N=C(NO)N1CCN(c2cc(C)cc(C)c2)CC1 [Example 180, N-Hydroxy-N′-(4,5-dimethyl-2-methoxyphenyl-1-yl)-[4-(3,5-dimethylphenyl)piperazin-1-yl]carboxyimidamide]",,,,,,,160,310,160,280,240
"COc1cc(OC)cc(N2CCN(C(=Nc3cc(C)c(C)cc3OC)NO)CC2)c1 [Example 181, N-Hydroxy-N′-(4,5-dimethyl-2-methoxyphenyl-1-yl)-[4-(3,5-dimethoxyphenyl)piperazin-1-yl]carboxyimidamide]",,,,,,,20,110,60,130,40
"COc1cc(C)c(C)cc1N=C(NO)N1CCN(c2cc(F)cc(F)c2)CC1 [Example 182, N-Hydroxy-N′-(4,5-dimethyl-2-methoxyphenyl-1-yl)-[4-(3,5-difluorophenyl)piperazin-1-yl]carboxyimidamide]",,,,,,,6,33,81,292,103

# Second part, led by results:
IC50 (HCT-15 (human colon)) [ng/mL],IC50 (SKMEL-2 (human melanoma)) [ng/mL],IC50 (SKOV-3 (human ovarian)) [ng/mL],IC50 [1] [ng/mL],IC50 [2] [ng/mL],IC50 (XF 498 (human CNS)) [ng/mL],SMILES,ED50 HCT 15 (HCT-15 (human colon)) [ng/mL],ED50 SK-MEL-2 (SKMEL-2 (human melanoma)) [ng/mL],ED50 SK-OV-3 (SKOV-3 (human ovarian)) [ng/mL],ED50 A 549 [1] [ng/mL],ED50 XF-498 (XF 498 (human CNS)) [ng/mL]
0.1,< 0.1,0.6,0.1,40,0.1,"COc1cc(OC)cc(N2CCN(C(=S)Nc3nc(C)c(C)nc3OC)CC2)c1 [Example 28, 1-[(5,6-Dimethyl-2-methoxypyrazin-3-yl)aminothiocarbonyl]-4-(3,5-dimethoxyphenyl)piperazine]",,,,,
0.7,< 0.1,0.7,0.6,70,0.5,"COc1nc(C)c(C)nc1NC(=S)N1CCN(c2cc(C)cc(C)c2)CC1 [Example 30, 1-[(5,6-Dimethyl-2-methoxypyrazin-3-yl)aminothiocarbonyl]-4-(3,5-dimethylphenyl)piperazine]",,,,,
9,20,20,10,300,3,"COc1ccccc1N1CCN(C(=O)Nc2nc3ccccc3nc2OC)CC1 [Example 37, 1-[(2-Methoxyquinoxalin-3-yl)aminocarbonyl]-4-(2-methoxyphenyl)-piperazine]",,,,,
32,11,57,19,340,14,"COc1cc(OC)cc(N2CCN(C(=S)Nc3nc4ccccc4nc3OC)CC2)c1 [Example 64, 1-[(2-Methoxyquinoxalin-3-yl)aminothiocarbonyl]-4-(3,5-dimethoxyphenyl)piperazine]",,,,,
3,2,8,5,200,8,"COc1nc2ccccc2nc1NC(=S)N1CCN(c2cc(C)cc(C)c2)CC1 [Example 66, 1-[(2-Methoxyquinoxalin-3-yl)aminothiocarbonyl]-4-(3,5-di-methylphenyl)piperazine]",,,,,
0.1,< 0.1,0.7,0.1,100,0.1,"CCOc1nc2ccccc2nc1NC(=O)N1CCN(c2cc(OC)cc(OC)c2)CC1 [Example 72, 1-[(2-Ethoxyquinoxalin-3-yl)aminocarbonyl]-4-(3,5-dimethoxyphenyl)piperazine]",,,,,
28,3,38,2,680,24,"CCOc1nc2ccccc2nc1NC(=O)N1CCN(c2cc(C)cc(C)c2)CC1 [Example 74, 1-[(2-Ethoxyquinoxalin-3-yl)aminocarbonyl]-4-(3,5-dimethylphenyl)piperazine]",,,,,

# Reference: patent US6683184B2, “Piperazine derivatives and process for the preparation thereof” (Samjin Pharmaceutical Co., Ltd., priority 1999, dated 2004)
